Experimental findings from patent US20240165137A1, “METHODS FOR IMPROVING MUSCLE STRENGTH AND MOBILITY” (Intrinsic Medicine, Inc., priority 2020, published 2024) are described below.

The assay concerns CEBPB expression in LPS-stimulated THP-1 cells. Put plainly: Nascent RNA sequencing of LPS-stimulated THP-1 cells (CEBPB expression). Conditions: 10 ng/mL LPS and 250 μM 2′FL. It counts as cell-based. Here is the method: THP-1 Cells were treated with 10 ng/mL LPS or 10 ng/mL LPS and 250 μM 2′FL and extracted for nascent RNAs at 30 min and 24 hours. The nascent RNAs were sequenced and analyzed as described in Azofeifa et al. (2018), Genome Res. 28: 334-344; the contents of which are expressly incorporated by reference herein.

Turning to `CC1O[C@@H](OC2[C@H](O[C@H]3C(O)C(O)C(O)O[C@H]3CO)OC(CO)[C@H](O)[C@@H]2O)C(O)[C@@H](O)[C@@H]1O` (stereo partly drawn) [2′FL, 2′-fucosyllactose], the “CEBPB maximum enrichment score (nascent RNAs, 2′FL+LPS versus LPS alone)” value is, setting by setting: (30 min) 40; (24 hours) 20. Under “both the 30 min and 24 hour time points”, the “CEBPB expression (nascent RNAs, 2′FL+LPS versus LPS alone)” value is “enhanced and upregulated”.
